# PMC11189555, “Aryl amino acetamides prevent Plasmodium falciparum ring development via targeting the lipid-transfer protein PfSTART1” (Nature Communications, 2024)
# Values joined by “and” are separate entries in the source; they are usually repeats but may differ in a detail not shown here. Identical values can stand only once. Like-named read-outs stand apart in the source and are kept apart here.
# Tested on: SLI-N309K parasites
# Test: Growth inhibition assay (72 h, LDH activity)
# Type: cell-based, Plasmodium falciparum
# Settings: for Growth inhibition, (1 - av / DMSO) x 100: Fig 2B source data, per biological replicate; for sample/DMSO: START(N309K), biological replicates 1-4; for EC50: Plasmodium falciparum
# Protocol: Parasite growth assays with inhibitory compounds were performed as per[11] and are fully described in the Supplementary Information.
# Molecular biology and transfection of P. falciparum: Selection Linked Integration […]
# To introduce the PfSTART1 mutations, the second half of the coding sequence of pfstart1 (PF3D7_0104200), was recodonised without introns to the bias of Saccharomyces cerevisiae containing either WT, N309K or N330K mutations, and synthesised as gBlock fragments (Integrated DNA Technologies). The first 819 bp of the 5′ native sequence of pfstart1 was amplified from gDNA, to form the 5’ homology block (5’ HB). The 3′ recodonised gBlock fragment comprising of the last 552 bp of either the WT, N309K or N330K pfstart1 to form the ‘recodon’ block (primers listed in Table S2). The 5’ HB and recodon products were sewn together by overlapping PCR to reconstitute the full coding sequence of pfstart1. These blocks (WT/N309K/N330K) were digested with BglII/PstI, and inserted into the parasite vector p-HA-2A-Neo-glmS
# 1. This plasmid contains an in -frame haemagglutinin (HA) epitope for protein identification and a P2A peptide (2A) to skip continuous peptide bond synthesis of a downstream neomycin resistance gene ( NeoR).
# Parasites containing the transfected DNA were selected using 2.5 nM WR99210 (Jacobus). To select for parasites in which single crossover integration had occurred into the pfstart1 locus, parasites were treated with 400 μg/mL G418 (geniticin, Sigma Aldrich) for 14 days: only parasites that have integrated the construct into their genome expressed the neomycin resistance gene together with the PfSTART1 protein.
# Parasite lines were cloned using limiting dilution. These clones were then tested on Western Blot (for correct HA-tagging and protein size), and correct integration and sequence were tested by PCR analysis: PCR on the gDNA was conducted using the primers START_5’UTR.F and START_Seq.R (Table S2). […]
# Growth inhibition assays. Synchronised ring-stage parasites (0.3-0.6% parasitemia, 2% haematocrit) were grown for 72 h in a serial-dilution of the compound under […]
# and compound 4. Note that M-833 was first purchased from MolPort (MolPort -002-267-916) then made in-house at WEHI: the differences observed in EC50s across experiments are attributed to the different batches of M -833. For some experiments, 0, 0.25 or 2.5 mM of glucosamine (GlcN) was also added. Experiments were set up in technical duplicates or triplicates. Following a freeze -thaw cycle, lactate dehydrogenase (LDH) activity was assessed as an indicator of parasite growt h 5. 30 μL of parasite culture was incubated for 30 min in the dark with 75 μL Malstat mixture (0.1 M Tris pH 9.0, 20 g/L lactic acid, pH 7.5, 0.2% Triton-X100, 0.5 g/L acetylpyridine adenine dinucleotide (APAD, Sigma), 200 μg/mL nitroblue tetrazolium (NBT; Sigma), 1 μg/mL phenozine ethosulfate (PES; Sigma)). Absorbance was then measured at 650 nm, transformed using the formula below, plotted against the logarithm of the concentrations, and a non-linear regression (log(inhibitor) vs. response, variable slope) was calculated using GraphPad Prism to assess the half-inhibitory […]
# Growth inhibition % = (1 − average(sample)− average(uRBC)) ∗ 100 […]
# The DMSO samples were also used to assess growth of parasite in the presence of 0.25 and 2.5 mM GlcN (normalised by DMSO in 0 mM GlcN).
# Egress, invasion & recovery assay. To measure egress, invasion and follow up recovery in the presence of different compounds, we adapted the method developed in6, using Hyp1-Nluc parasites7. These parasites episomally express the exported PEXEL protein Hyp1 (PF3D7_0113300) tagged with a NanoLuc luciferase (NLuc) and were selected with 2.5 nM WR99210 (Jacobus). Highly synchronised schizonts were obtained using ML10 (LifeArc) and sorbitol synchronisation, and Percoll-purified (the culture was gently layered over 67% Percoll (Cytiva) in RPMI, and centrifuged for 15 min at 1500 g and the schizont layer was collected and washed). […]
compound,measurement,setting,value
Cc1cc(Cl)c(S(=O)(=O)N2CCCC2)cc1OCC(=O)NC1CCCCC1 [M-833],"Growth inhibition, (1 - av / DMSO) x 100","SLI-N309K, M-833 conc 0.00304832 (unit not given)",-28.2579% and -1.2093% and -11.368%
same,"Growth inhibition, (1 - av / DMSO) x 100","SLI-N309K, M-833 conc 0.00914495 (unit not given)",-16.5589% and 4.977% and -8.756%
same,"Growth inhibition, (1 - av / DMSO) x 100","SLI-N309K, M-833 conc 0.0274348 (unit not given)",-9.0535% and 17.7442% and 3.575%
same,"Growth inhibition, (1 - av / DMSO) x 100","SLI-N309K, M-833 conc 0.0823045 (unit not given)",-11.797% and 21.4186% and -2.462%
same,"Growth inhibition, (1 - av / DMSO) x 100","SLI-N309K, M-833 conc 0.246914 (unit not given)",-0.0196% and 23.5116% and 10.1477%
same,"Growth inhibition, (1 - av / DMSO) x 100","SLI-N309K, M-833 conc 0.740741 (unit not given)",27.0233% and 58.6744% and 26.0116%
same,"Growth inhibition, (1 - av / DMSO) x 100","SLI-N309K, M-833 conc 2.22222 (unit not given)",70.1744% and 76.5116% and 55.7482%
same,"Growth inhibition, (1 - av / DMSO) x 100","SLI-N309K, M-833 conc 6.66667 (unit not given)",87.2624% and 94.814% and 86.8337%
same,"Growth inhibition, (1 - av / DMSO) x 100","SLI-N309K, M-833 conc 20 (unit not given)",88.5166% and 95.5116% and 93.0422%
same,sample/DMSO,"M-833 0.00152416 uM, 0 mM GlcN",2.39
same,sample/DMSO,"M-833 0.00152416 uM, 0.25 mM GlcN",4.826 and 2.498
same,sample/DMSO,"M-833 0.00152416 uM, 2.5 mM GlcN",6.332
same,sample/DMSO,"M-833 0.00457247 uM, 0 mM GlcN",13.8723 and 0.5123 and 3.546 and -3.543
same,sample/DMSO,"M-833 0.00457247 uM, 0.25 mM GlcN",7.1 and 10.4012 and -2.062 and -3.605
same,sample/DMSO,"M-833 0.00457247 uM, 2.5 mM GlcN",13.3216 and 19.7117 and 1.5728 and -5.599
same,sample/DMSO,"M-833 0.0137174 uM, 0 mM GlcN",7.619 and -0.2396 and 1.751 and 10.2857
same,sample/DMSO,"M-833 0.0137174 uM, 0.25 mM GlcN",8.4852 and 5.851 and 4.488 and 5.637
same,sample/DMSO,"M-833 0.0137174 uM, 2.5 mM GlcN",21.8449 and 8.908 and 5.227 and 1.886
same,sample/DMSO,"M-833 0.0411523 uM, 0 mM GlcN",1.68 and 3.644 and 4.3 and 2.606
same,sample/DMSO,"M-833 0.0411523 uM, 0.25 mM GlcN",17.5682 and 13.2615 and 4.177 and 1.848
same,sample/DMSO,"M-833 0.0411523 uM, 2.5 mM GlcN",19.1718 and 12.6822 and 8.512 and 8.472
same,sample/DMSO,"M-833 0.123457 uM, 0 mM GlcN",3.306 and 10.0306 and 17.9209 and 10.4229
same,sample/DMSO,"M-833 0.123457 uM, 0.25 mM GlcN",21.665 and 12.0728 and 20.7856 and 13.6953
same,sample/DMSO,"M-833 0.123457 uM, 2.5 mM GlcN",31.9676 and 15.6301 and 24.5056 and 24.9447
same,sample/DMSO,"M-833 0.37037 uM, 0 mM GlcN",13.628 and 22.7795 and 30.4444 and 24.0457
same,sample/DMSO,"M-833 0.37037 uM, 0.25 mM GlcN",34.9176 and 21.471 and 31.1561 and 33.3027
same,sample/DMSO,"M-833 0.37037 uM, 2.5 mM GlcN",40.447 and 24.7651 and 37.6894 and 48.2393
same,sample/DMSO,"M-833 1.11111 uM, 0 mM GlcN",28.3402 and 44.5509 and 44.7966 and 56.0914
same,sample/DMSO,"M-833 1.11111 uM, 0.25 mM GlcN",53.0252 and 39.9238 and 58.0645 and 67.3975
same,sample/DMSO,"M-833 1.11111 uM, 2.5 mM GlcN",64.9649 and 41.0107 and 63.8256 and 74.1417
same,sample/DMSO,"M-833 3.33333 uM, 0 mM GlcN",62.0018 and 73.866 and 73.9333 and 81.5771
same,sample/DMSO,"M-833 3.33333 uM, 0.25 mM GlcN",83.0296 and 69.5951 and 81.4805 and 87.3149
same,sample/DMSO,"M-833 3.33333 uM, 2.5 mM GlcN",83.83 and 68.173 and 80.0856 and 88.1096
same,sample/DMSO,"M-833 10 uM, 0 mM GlcN",89.1663 and 89.2589 and 93.2173 and 92.8571
same,sample/DMSO,"M-833 10 uM, 0.25 mM GlcN",91.9813 and 85.912 and 92.402 and 91.8609
same,sample/DMSO,"M-833 10 uM, 2.5 mM GlcN",89.5706 and 77.5672 and 88.9441 and 91.41
same,EC50,"72 h, Fig 2B, SLI-N309K, 72 h, n = 3, unit only in x-axis title, read-out: EC50 (95% confidence interval)",992 nM
same,EC50,"Fig 3C, SLI-N309K, 0 mM GlcN, n = 4, unit on plot axis, read-out: EC50 M-833 (95% confidence interval)",1620 nM
same,EC50,"Fig 3C, SLI-N309K, 0.25 mM GlcN, n = 4, unit on plot axis, read-out: EC50 M-833 (95% confidence interval)",968 nM
same,EC50,"Fig 3C, SLI-N309K, 2.5 mM GlcN, n = 4, unit on plot axis, read-out: EC50 M-833 (95% confidence interval)",645 nM
same,fold more resistant than the 3D7 parental parasites,"SLI-N309K, Fig 2B",10 fold
same,fold reduction of EC50 on addition of 2.5 mM GlcN,"SLI-N309K, not statistically significant",2.5 fold
